The values that follow come from ChEMBL document CHEMBL3745712, “Identification of N-(4-((1R,3S,5S)-3-Amino-5-methylcyclohexyl)pyridin-3-yl)-6-(2,6-difluorophenyl)-5-fluoropicolinamide (PIM447), a Potent and Selective Proviral Insertion Site of Moloney Murine Leukemia (PIM) 1, 2, and 3 Kinase Inhibitor in Clinical Trials for Hematological Malignancies” (J Med Chem, 2015).

A short description of series [1]: cells. The class given is functional, cell-based. The following applies: Homo sapiens, KMS-11, 72 h.
Description: Antiproliferative activity against luciferase expressing human KMS11 cells after 72 hrs by Cell-TiterGlo assay
The nature of series [2]: in vitro. The following applies: human, microsomes.
The nature of series [3]: in vitro. To be noted: human, microsomes. This is another data set of the same source.
The nature of series [4]: in vitro. The following applies: rat, microsomes.
Series [5] can be described thus: in vitro. To be noted: rat, microsomes. The source holds these as a separate data set.
The target of series [6] is Serine/threonine-protein kinase pim-3 (Homo sapiens, UniProt Q86V86).
Series [7] in a line: cells. Format: cell-based, KMS11. To be noted: Homo sapiens, KMS-11, 1 h.
For series [8], the target named is Serine/threonine-protein kinase pim-1 (Homo sapiens, UniProt P11309).
Chain of Serine/threonine-protein kinase pim-1 (P11309 whole entry): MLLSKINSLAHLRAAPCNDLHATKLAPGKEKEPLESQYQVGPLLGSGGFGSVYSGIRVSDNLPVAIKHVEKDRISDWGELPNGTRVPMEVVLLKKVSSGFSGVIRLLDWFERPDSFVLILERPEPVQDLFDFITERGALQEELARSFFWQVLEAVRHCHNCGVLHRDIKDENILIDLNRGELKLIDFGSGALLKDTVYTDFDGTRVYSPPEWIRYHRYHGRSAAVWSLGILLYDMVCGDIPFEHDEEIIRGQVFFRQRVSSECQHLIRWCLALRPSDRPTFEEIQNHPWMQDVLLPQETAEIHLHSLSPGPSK

For `N[C@@H]1CCCN(c2c(/C=C3\SC(=O)NC3=O)cccc2-c2ccccc2)C1`, the EC50 in “cells [1]” was 670 nM.
`C[C@@H]1C[C@H](N)C[C@H](c2ccncc2NC(=O)c2ccc(F)c(-c3ccccc3F)n2)C1`: the CLhep predicted at 0.5 h, 1 µM in “in vitro [2]” is under 6 mL/min/kg. For the same compound, the half-life at 0.5 h, 1 µM is over 180 min in “in vitro [3]” and 92 min in “in vitro [4]”.
Regarding `Nc1ccc(C2CCCCC2)nc1C(=O)Nc1cnccc1[C@@H]1CCC[C@H](N)C1`, the CLhep predicted at 0.5 h, 1 µM in “in vitro [2]” is 10 mL/min/kg. Further, the half-life at 0.5 h, 1 µM was 85 min in “in vitro [3]” and 8 min in the series “in vitro [4]”.
As for `N[C@H]1CCCN(c2ccncc2NC(=O)c2csc(-c3c(F)cccc3F)n2)C1`, the CLhep predicted at 0.5 h, 1 µM in “in vitro [2]” is 11 mL/min/kg; in the series “in vitro [5]” it was 49 mL/min/kg. In “cells [1]”, this compound displayed an EC50 of 1200 nM. Moreover, the values for the half-life at 0.5 h, 1 µM in the series “in vitro [3]” and in “in vitro [4]” were 70 min and 6 min, respectively.
For the compound `C[C@@H]1C[C@H](N)CN(c2ccncc2NC(=O)c2csc(-c3c(F)cccc3F)n2)C1`, the CLhep predicted at 0.5 h, 1 µM is 13 mL/min/kg in the series “in vitro [2]” and 47 mL/min/kg in the series “in vitro [5]”. Moreover, the EC50 in “cells [1]” worked out at 390 nM. Moreover, the half-life at 0.5 h, 1 µM in the series “in vitro [3]” came out at 49 min; in the series “in vitro [4]” it was 9 min.
The corresponding values for `N[C@H]1CCC[C@@H](c2ccncc2NC(=O)c2csc(-c3c(F)cccc3F)n2)C1` are 8 mL/min/kg, 21 mL/min/kg, 5000 nM, 121 min and 85 min.
Take `C[C@@H]1C[C@H](N)C[C@H](c2ccncc2NC(=O)c2csc(-c3c(F)cccc3F)n2)C1`: the CLhep predicted at 0.5 h, 1 µM in the series “in vitro [2]” was under 6 mL/min/kg; in “in vitro [5]”, 24 mL/min/kg. In addition, the EC50 was determined as 910 nM in “cells [1]” and 320 nM in “cells [7]”. Moreover, the Ki in series [6] was 4 nM; in series [8], under 1 nM. The figures for the half-life at 0.5 h, 1 µM in “in vitro [3]” and in the series “in vitro [4]” were over 180 min and 65 min, respectively.
With `C[C@@H]1C[C@H](N)CN(c2ccncc2NC(=O)c2ccc(F)c(-c3ccccc3F)n2)C1`, the CLhep predicted at 0.5 h, 1 µM in the series “in vitro [2]” was 18 mL/min/kg; in the series “in vitro [5]”, 45 mL/min/kg. Besides, the Ki in series [6] was under 3 nM. The results for the half-life at 0.5 h, 1 µM in the series “in vitro [3]” and in “in vitro [4]” were 13 min and 11 min, respectively.
Turning to `N[C@H]1CCCN(c2ccncc2NC(=O)c2ccc(F)c(-c3c(F)cccc3F)n2)C1`, the results for the CLhep predicted at 0.5 h, 1 µM in the series “in vitro [2]” and in the series “in vitro [5]” were 16 mL/min/kg and 44 mL/min/kg, respectively. In addition, in the series “cells [1]”, the response was half-maximal at 1400 nM (EC50). Further, the Ki in series [6] was under 3 nM; in series [8], under 1 nM. In addition, the results for the half-life at 0.5 h, 1 µM in the series “in vitro [3]” and in the series “in vitro [4]” were 25 min and 13 min, respectively.
In the case of `Nc1ccc(C2CCCCC2)nc1C(=O)Nc1cnccc1N1CCC[C@H](N)C1`, the CLhep predicted at 0.5 h, 1 µM was 18 mL/min/kg in “in vitro [2]” and 52 mL/min/kg in the series “in vitro [5]”. Also, the Ki in series [6] was 3 nM; in series [8], under 1 nM. Further, the values for the half-life at 0.5 h, 1 µM in the series “in vitro [3]” and in the series “in vitro [4]” were 14 min and 3 min, respectively.
On to `C[C@@H]1C[C@H](N)CN(c2ccncc2NC(=O)c2ccc(F)c(-c3c(F)cccc3F)n2)C1`, for which the CLhep predicted at 0.5 h, 1 µM was 14 mL/min/kg in “in vitro [2]” and 40 mL/min/kg in “in vitro [5]”. The half-life at 0.5 h, 1 µM was 40 min in “in vitro [3]” and 20 min in the series “in vitro [4]”.
With `CN1CCC(CNc2ccc3ncc(-c4cccc(OC(F)(F)F)c4)n3n2)CC1` [SGI-1776], in the series “cells [1]”, the EC50 is 5000 nM.

For orientation: EC50 means the concentration giving half of the maximal effect. As usually defined, the half-life is the time in which the quantity being followed falls by half. The term Ki denotes the equilibrium dissociation constant of an inhibitor or competing ligand from its target. Low readings indicate higher affinity, high ones lower affinity.
